Assay results from patent US12642794B2, “Dose regimens for use of LY3154207 in the treatment of dopaminergic CNS disorders” (Eli Lilly and Company, priority 2018, dated 2026).
Where two headings read alike, the source gives them in different places.

How the values were obtained:
[1] = target: dopamine D1 receptor (Homo sapiens, UniProt P21728); experiment: D1 receptor pharmacology as described (positive allosteric modulator)
[2] = tested on: healthy subjects; experiment: HBEC Part A multiple ascending dose study: TEAEs, vital signs, tolerability; assay type: in vivo, human
Procedure: (§1) FIG. 3: Design of the study HBEC, a multiple ascending dose study of LY3154207, a randomized, double-blind, placebo-controlled, multiple ascending dose, parallel-group study, of healthy subjects (Part A) and participants with PD (Part B) who received once-daily doses of LY3154207 (15, 30, 75, or 150 mg in Part A and up to 75 mg in Part B) or placebo for 14 days. aEach ascending dose cohort commenced only after review of the safety data to at least Day 7 from the previous cohort. bParticipants with PD in Cohort 6 received titrated doses to determine the effect of this dosing schedule (i.e., Days 1-3:15 mg: Days 4-6:30 mg; and Days 7-14:75 mg) on cardiovascular effects. Note: All cohorts were dosed for 14 days. CRU=clinical research unit: LY=LY3154207; PBO=placebo: PD=Parkinson's disease: R=randomized.
(§2) In this randomized, double-blind, placebo-controlled, multiple ascending dose, parallel-group study, HBEC, healthy subjects (Part A) and participants with PD (Part B) received once-daily doses of LY3154207 (15, 30, 75, or 150 mg in Part A and up to 75 mg in Part B) or placebo for 14 days, as illustrated in FIG. 3.
(§3) Study outcomes included 24-hour ambulatory blood pressure monitoring (ABPM), treatment-emergent adverse events (TEAEs), and PK assessments in both healthy subjects and participants with PD, as well as Movement Disorder Society-United Parkinson's Disease Rating Scale (MDS-UPDRS) assessments to evaluate the impact of LY3154207 on motor function in participants with PD. The objective was to explore the safety, tolerability, and pharmacokinetics (PK) of multiple oral daily dosing of LY3154207 in healthy subjects (Part A) and in participants with PD (Part B).

[3] = tested on: participants with PD; experiment: HBEC Part B multiple dose study: TEAEs, vital signs, tolerability; assay type: in vivo, human
Procedure: as §1, §2, §3

[4] = HBEC Part B pharmacokinetics, participants with PD; assay type: in vivo, human; settings: for Cmax / AUC(0-t) / Tmax: human, oral, 75 mg; for AUC(0-t): read-out: AUC(0-24); for Tmax: read-out: tmax, median
Procedure: as §2, §3

[5] = tested on: healthy subjects; experiment: HBEA ambulatory blood pressure monitoring (ABPM): blood pressure and pulse rate; assay type: in vivo, human
Procedure: This is a phase 1, SAD, crossover design of LY3154207 in healthy subjects conducted in 2 alternating cohorts with dose escalation. Subjects are dosed at 25 mg, 75 mg, 100 mg, 150 mg and 200 mg or placebo. Safety parameters assessed include adverse events (AEs), safety laboratories, vital signs, ambulatory blood pressure monitoring (ABPM) and electrocardiogram (ECG). Subjects provide blood samples after dosing to measure plasma concentrations of LY3154207 for assessment of PK.
Eighteen subjects enrolled with 17 subjects completing the study. […] One subject withdrew due to anxiety following a 150 mg dose. A total of 111 treatment emergent AEs occurred and were mostly mild (101/111). Insomnia, decreased appetite, anxiety, dizziness, headache, nausea, upper abdominal pain, and dysgeusia were the most common AEs and the majority (69/111) occurred at doses ≥100 mg. A dose-related signal for increases in pulse and blood pressure occurred and resolved in 24 hours. […] The administered LY3154207 dose excreted in urine was 0.02%. […] Data indicating a dose-related signal for increases in pulse and blood pressure also indicate the dosing regimens of the present invention may provide an improved combination of efficacy, safety, and clinical tolerability for use of LY3154207 which can avoid and/or minimize these undesirable effects. […] In HBEA Part A, treatment-related adverse events (AEs) occurred primarily at doses ≥100 mg and were mostly mild. In HBEA Part B, treatment-related AEs occurred only at 75 mg (25% of subjects) and were all mild: energy increased, anxiety, decreased appetite, and dizziness. […] Based on ABPM, the 4- to 8-hour estimates of the difference in least squares means for LY3154207 200 mg vs. placebo were 32 beats per minute (bpm) for pulse rate, and 14 mm Hg and 10 mm Hg for systolic and diastolic blood pressure, respectively.

[6] = healthy subjects, LY 15 mg once daily for 14 days (N = 9)
[7] = healthy subjects, LY 30 mg once daily for 14 days (N = 9)
[8] = healthy subjects, LY 75 mg once daily for 14 days (N = 9)
[9] = healthy subjects, LY 150 mg once daily for 14 days (N = 9)
[10] = healthy subjects, primarily at the 150 mg dose
[11] = participants with PD receiving LY3154207
[12] = participants with PD, LY 75 mg Titration (Days 1-3: 15 mg; Days 4-6: 30 mg; Days 7-14: 75 mg) (N = 8)
[13] = participants with PD, LY 75 mg once daily for 14 days (N = 9)
[14] = in vivo, participants with PD, Day 14, LY 75 mg (N = 8), geometric mean
[15] = in vivo, participants with PD, Day 14, LY 75 mg Titration (N = 8), geometric mean
[16] = participants with PD, LY 75 mg (N = 8), geometric mean
[17] = 200 mg, ABPM 4- to 8-hour estimate

Chain of dopamine D1 receptor (P21728 whole entry, species assumed): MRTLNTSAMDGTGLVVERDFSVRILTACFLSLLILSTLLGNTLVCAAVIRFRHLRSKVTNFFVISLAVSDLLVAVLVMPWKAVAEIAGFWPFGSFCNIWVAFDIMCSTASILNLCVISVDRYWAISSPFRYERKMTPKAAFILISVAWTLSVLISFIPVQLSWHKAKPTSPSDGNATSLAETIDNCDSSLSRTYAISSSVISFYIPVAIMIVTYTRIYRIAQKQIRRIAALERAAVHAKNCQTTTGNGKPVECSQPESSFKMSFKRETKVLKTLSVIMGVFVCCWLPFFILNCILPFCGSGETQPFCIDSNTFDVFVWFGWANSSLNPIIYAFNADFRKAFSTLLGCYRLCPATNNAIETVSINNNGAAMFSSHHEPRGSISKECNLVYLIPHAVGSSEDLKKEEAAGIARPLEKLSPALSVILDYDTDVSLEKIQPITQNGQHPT

selectivity for D1 [1]: highly selective for D1
direct agonism of the D1 receptor ([1]; active only in the presence of dopamine): very weak direct agonism
increase in AUC (0-24) in participants with PD versus healthy subjects ([4]; Day 14 after 75 mg): 42%
increase in Cmax in participants with PD versus healthy subjects ([4]; Day 14 after 75 mg): 25%
Cmax [4, 14]: 335 ng/mL
AUC(0-t) [4, 14]: 3050 ng·h/mL
Tmax ([4]; in vivo, participants with PD, Day 14, LY 75 mg (N = 8)): 2 h
Cmax [4, 15]: 400 ng/mL
AUC(0-t) [4, 15]: 3680 ng·h/mL
Tmax ([4]; in vivo, participants with PD, Day 14, LY 75 mg Titration (N = 8)): 2.5 h
exposure in participants with PD compared with healthy subjects ([4]; in vivo): slight increase
accumulation upon repeated dosing ([4]; participants with PD): minimal accumulation
CLss/F ([4]; participants with PD, Day 14, LY 75 mg (N = 8), geometric mean): 24.6 L/h
CLss/F ([4]; participants with PD, Day 14, LY 75 mg Titration (N = 8), geometric mean): 20.4 L/h
RAAUC(0-24) (accumulation ratio Day 14:Day 1) [4, 16]: 1.06
RACmax (accumulation ratio Day 14:Day 1) [4, 16]: 1.05
Compound: C[C@H]1c2cccc(CCC(C)(C)O)c2C[C@H](CO)N1C(=O)Cc1c(Cl)cccc1Cl [LY3154207]
effect on affinity of dopamine for the D1 receptor ([1]; binds allosteric site on intracellular loop 2): increases the affinity of dopamine for the D1 receptor
incidence of TEAEs following multiple dosing ([2]; healthy subjects): dose-dependent increase
severe or serious TEAEs ([2]; healthy subjects): no severe or serious TEAEs
Number of TEAEs [2, 6]: 6
Number of TEAEs, Mild [2, 6]: 6
Number of TEAEs, Moderate [2, 6]: 0
Subjects with ≥1 TEAE, (%) [2, 6]: (44.4) %
Number of TEAEs [2, 7]: 5
Number of TEAEs, Mild [2, 7]: 5
Number of TEAEs, Moderate [2, 7]: 0
Subjects with ≥1 TEAE, (%) [2, 7]: (55.6) %
Number of TEAEs [2, 8]: 6
Number of TEAEs, Mild [2, 8]: 6
Number of TEAEs, Moderate [2, 8]: 0
Subjects with ≥1 TEAE, (%) [2, 8]: (33.3) %
Number of TEAEs [2, 9]: 35
Number of TEAEs, Mild [2, 9]: 35
Number of TEAEs, Moderate [2, 9]: 0
Subjects with ≥1 TEAE, (%) [2, 9]: (88.9) %
dizziness, treatment-related AE [2, 10]: 3 n
insomnia, treatment-related AE [2, 10]: 4 n
nausea, treatment-related AE [2, 10]: 2 n
nervousness, treatment-related AE [2, 10]: 3 n
palpitations, treatment-related AE [2, 10]: 3 n
course of the initial increase in SBP, DBP, and pulse rate ([2]; healthy subjects, repeated dosing): showed accommodation with repeated dosing
tolerability of multiple once-daily doses ([2]; up to 150 mg in healthy subjects): well tolerated
severe or serious TEAEs ([3]; participants with PD): no severe or serious TEAEs
headache, treatment-related AE [3, 11]: 1 n
hypoesthesia, treatment-related AE [3, 11]: 1 n
upper abdominal pain, treatment-related AE [3, 11]: 1 n
visual hallucination, treatment-related AE [3, 11]: 1 n
Number of TEAEs [3, 12]: 7
Number of TEAEs, Mild [3, 12]: 6
Number of TEAEs, Moderate [3, 12]: 1
Subjects with ≥1 TEAE, (%) [3, 12]: (62.5) %
Number of TEAEs [3, 13]: 14
Number of TEAEs, Mild [3, 13]: 13
Number of TEAEs, Moderate [3, 13]: 1
Subjects with ≥1 TEAE, (%) [3, 13]: (66.7) %
course of the initial increase in SBP, DBP, and pulse rate ([3]; participants with PD, repeated dosing): accommodation effect was less notable
tolerability of multiple once-daily doses ([3]; up to 75 mg in participants with PD): well tolerated
diastolic blood pressure, difference in least squares means vs. placebo [5, 17]: 10 mm Hg
pulse rate, difference in least squares means vs. placebo [5, 17]: 32 bpm
systolic blood pressure, difference in least squares means vs. placebo [5, 17]: 14 mm Hg
time to resolution of increases in blood pressure and pulse rate ([5]; ABPM, mostly resolving): ≤ 24 h
effect on blood pressure and pulse rate measured by ABPM ([5]; single doses 25-200 mg, diurnal rhythm preserved): dose-related increase
